Experimental data as given in US4331659A, “Antibiotic U-62,162 and process of making” (The Upjohn Company, priority 1980, dated 1982).
Values after ≈ are worked out from the molar mass of the structure shown.

What was measured:
Enterococcus sp. = experiment: standard agar dilution assay (MIC); type: cell-based; conditions: UC 701; 24 hours, 28° to 37° C.
Method: (§1) The antibacterial assay is a standard agar dilution assay. The MIC is determined by standard methods using two-fold dilutions of the antibiotic in Brain Heart Infusion Broth (Difco Lab., Detroit, Michigan). The inocula are overnight cultures of the test organisms, diluted so that the final population contains approximately 10^5 cells/ml. The solutions are incubated at 28° to 37° C. for 24 hours. The lowest antibiotic concentration which allows no growth=MIC or minimum inhibitory concentration.

Escherichia coli = experiment: standard agar dilution assay (MIC); type: cell-based; conditions: UC 45; 24 hours, 28° to 37° C.
Method: as §1

Klebsiella pneumoniae = experiment: standard agar dilution assay (MIC); type: cell-based; conditions: UC 58; 24 hours, 28° to 37° C.
Method: as §1

Pseudomonas aeruginosa = experiment: standard agar dilution assay (MIC); type: cell-based; conditions: UC 95; 24 hours, 28° to 37° C.
Method: as §1

[1] = system: Salmonella schottmuelleri; experiment: standard agar dilution assay (MIC); type: cell-based; conditions: UC 126; 24 hours, 28° to 37° C.
Method: as §1

Staphylococcus aureus = experiment: standard agar dilution assay (MIC); type: cell-based; conditions: 24 hours, 28° to 37° C.
Method: as §1

Streptococcus faecalis = experiment: standard agar dilution assay (MIC); type: cell-based; conditions: UC 694; 24 hours, 28° to 37° C.
Method: as §1

Streptococcus pneumoniae = experiment: standard agar dilution assay (MIC); type: cell-based; conditions: UC 41; 24 hours, 28° to 37° C.
Method: as §1

Streptococcus pyogenes = experiment: standard agar dilution assay (MIC); type: cell-based; conditions: UC 152; 24 hours, 28° to 37° C.
Method: as §1

H. influenzae = experiment: standard agar-dilution method, MIC against ampicillin-resistant and ampicillin-susceptible H. influenzae type b; type: cell-based
Method: Antibiotic U-62,162 was also tested for activity against a group of ampicillin-resistant and ampicillin-susceptible H. influenzae type b.
A solution of the compound was prepared in dimethylsulfoxide (DMSO), diluted in Brain Heart Infusion Broth (BHIB) and MIC's were determined using the standard agar-dilution method.

Gram-positive bacteria = experiment: antibacterial activity against Gram-positive bacteria; type: cell-based
Method: as §1

S. aureus 6029 = experiment: disc plate assay (zone of inhibition, BU); type: cell-based; conditions: essentially pure crystalline, after countercurrent distribution
Method: Buffered (pH 5.8) silica gel is prepared by treating 1 kg of silica gel 60 with a solution of 54.4 g of KH2 PO4 in 800 ml of water. This is dried 16 hours at 110°. A 1 inch (diameter) column containing 60 g of buffered (pH 5.8) silica gel is poured in a slurry with chloroform. To this is added 250 mg of crude U-62,162, prepared as described above, in chloroform. The column is developed first with 120 ml of CHCl3, then with CHCl3 :MeOH (94:6 v/v). Fractions of 5 ml each are collected beginning when the mixed solvent is introduced. They are assayed by plating 12 mm discs containing […] aliquots on S. aureus 6029 trays. Fractions 55-65, containing most of the activity, are pooled and evaporated, 90 mg, […], 17,200 total BU.
A preparation of antibiotic U-62,162, as described above, (3 g) is distributed for 300 transfers in the two-phase solvent system afforded by ethyl acetate:ethanol (95%):cyclohexane:water (2:3:3:2 v/v). Phase volumes are 10 ml each. Fractions 120-150 are combined and the residue from these after evaporation affords essentially pure crystalline antibiotic U-62,162, 1 g, assaying 800-1500 BU/mg against S. aureus 6029. A BU is the amount of material distributed on a 12 mm disc which will give a 20 mm zone of inhibition.

Solubilities = type: physicochemical; conditions: lower alcohols (1-4 carbons), esters, ethers, aromatic hydrocarbons, dimethylformamide, dimethylsulfoxide, lower ketones (3-6 carbons)
stability to pH = type: physicochemical; conditions: pH 8.5 and higher

Q: What does the source list for CC(C)=CC(C)CC(C)/C=C/C(=O)NC1=CC(O)(CCCCC(=O)O)C2OC2C1=O (centres unmarked) [U-62,162]?
A: Minimum Inhibitory Concentration (Enterococcus sp.): 7.8 µg/mL; Minimum Inhibitory Concentration (Escherichia coli): > 1000 µg/mL; Minimum Inhibitory Concentration (Klebsiella pneumoniae): > 1000 µg/mL; Minimum Inhibitory Concentration (Pseudomonas aeruginosa): > 1000 µg/mL; Minimum Inhibitory Concentration [1]: > 1000 µg/mL; Minimum Inhibitory Concentration (Staphylococcus aureus; UC 76): 1.0 µg/mL; Minimum Inhibitory Concentration (Staphylococcus aureus; UC 6685): 1.0 µg/mL; Minimum Inhibitory Concentration (Staphylococcus aureus; UC 6690): 1.0 µg/mL; Minimum Inhibitory Concentration (Streptococcus faecalis): 7.8 µg/mL; Minimum Inhibitory Concentration (Streptococcus pneumoniae): 1.0 µg/mL; Minimum Inhibitory Concentration (Streptococcus pyogenes): 125 µg/mL; MIC (H. influenzae; UC 6482, ampicillin susceptible): 62.5 µg/mL (≈ 149 µM); MIC (H. influenzae; UC 6483, ampicillin resistant): 31.25 µg/mL (≈ 74.5 µM); MIC (H. influenzae; UC 6484, ampicillin resistant): 31.25 µg/mL (≈ 74.5 µM); MIC (H. influenzae; UC 6485, ampicillin susceptible): 31.25 µg/mL (≈ 74.5 µM); MIC (H. influenzae; UC 6486, ampicillin susceptible): 31.25 µg/mL (≈ 74.5 µM); MIC (H. influenzae; UC 6582, ampicillin resistant): 31.25 µg/mL (≈ 74.5 µM); MIC (H. influenzae; UC 6583, ampicillin resistant): 31.25 µg/mL (≈ 74.5 µM); MIC (H. influenzae; UC 6585, ampicillin resistant): 31.25 µg/mL (≈ 74.5 µM); MIC (H. influenzae; UC 6586, ampicillin resistant): 31.25 µg/mL (≈ 74.5 µM); MIC (H. influenzae; UC 6587, ampicillin resistant): 31.25 µg/mL (≈ 74.5 µM); MIC (H. influenzae; UC 6589, ampicillin resistant): 31.25 µg/mL (≈ 74.5 µM); MIC (H. influenzae; UC 6592, ampicillin resistant): 15.6 µg/mL (≈ 37.2 µM); MIC (H. influenzae; UC 6595, ampicillin resistant): 31.25 µg/mL (≈ 74.5 µM); MIC (H. influenzae; UC 6596, ampicillin resistant): 31.25 µg/mL (≈ 74.5 µM); MIC (H. influenzae; UC 6597, ampicillin susceptible): 31.25 µg/mL (≈ 74.5 µM); MIC (H. influenzae; UC 6598, ampicillin susceptible): 31.25 µg/mL (≈ 74.5 µM); activity against H. influenzae type b cultures (in words) (H. influenzae; all of the cultures tested): moderate activity; activity against various Gram-positive bacteria (in words) (Gram-positive bacteria): active; potency (BU; amount on a 12 mm disc which will give a 20 mm zone of inhibition) (S. aureus 6029): 800-1500 BU/mg; Solubilities (Solubilities): soluble; stability (stability to pH): unstable
